# Experimental data published in patent US5225436A, “Aryl substituted naphthalene derivatives” (Schering Corporation, priority 1991, dated 1993).
# Like-named read-outs stand apart in the source and are kept apart here.
# Columns and labels:
# [1] = test system: SRS-A / leukotriene release from antigen-challenged, sensitized guinea pig lung; assay: Inhibition of SRS-A (leukotriene) release from antigen-challenged, sensitized guinea pig lung; assay type: cell-based; design: inhibition: dose or concentration left out as unconfirmed; conditions: Cavia porcellus; for inhibition: Dose 30 μm (μM)
# Description: The anti-allergy method of this invention is identified by tests which measure a compound's inhibition of leukotriene release in sensitized guinea pigs. Sensitized guinea pigs are killed by a blow to the head and the lungs removed and cleaned of visible connective tissue, trachea and large blood vessels. The lungs from individual animals are sliced into fragments approximately 1 mm in thickness using a McIlwain tissue chopper and then washed with oxygenated Tyrode's buffer. Weighed aliquots (approximately 400 mg wet weight) of lung are transferred into vials containing 2 ml of fresh Tyrode's solution (containing 10 mM cysteine) and incubated in the presence or absence of test compound for 12 min at 37° C. The tissues are then challenged with 20 μg ovalbumin/ml (final concentration) and incubated for 15 min. To measure leukotriene release, an aliquot of supernatant fluid is extracted with 4 volumes of 100% ethanol. After removal of the precipitated protein, the clear fluid is dried under a stream of N2 gas. The leukotriene content is measured by a radioimmunoassay using [^3 H]LTC4 and antiserum obtained from New England Nuclear. The cross-reactivity of the antiserum for LTD4 is 55%. Percent inhibition of lekotriene release is calculated by comparing for each lung the release in the presence of the test compound to that in the absence of test compound. Representative compounds of the invention at a relative dose of 50 μM of tissue are found to inhibit leukotriene release in the test procedure as indicated below in Table 1: […]
# 5-lipoxygenase = target: T1, 5-lipoxygenase (Homo sapiens, UniProt P09917); assay: 5-Lipoxygenase assay with human neutrophils; assay type: cell-based; conditions: 5 min, Human PMN; for inhibition at 15 µM: dose 15 μm (μM)
# T1 construct: Human polymorphonuclear leukocytes (neutrophils) were obtained from normal healthy volunteers; endogenous in cells; host or cells: human blood neutrophils from healthy volunteers
# T1 sequence (P09917 1-674): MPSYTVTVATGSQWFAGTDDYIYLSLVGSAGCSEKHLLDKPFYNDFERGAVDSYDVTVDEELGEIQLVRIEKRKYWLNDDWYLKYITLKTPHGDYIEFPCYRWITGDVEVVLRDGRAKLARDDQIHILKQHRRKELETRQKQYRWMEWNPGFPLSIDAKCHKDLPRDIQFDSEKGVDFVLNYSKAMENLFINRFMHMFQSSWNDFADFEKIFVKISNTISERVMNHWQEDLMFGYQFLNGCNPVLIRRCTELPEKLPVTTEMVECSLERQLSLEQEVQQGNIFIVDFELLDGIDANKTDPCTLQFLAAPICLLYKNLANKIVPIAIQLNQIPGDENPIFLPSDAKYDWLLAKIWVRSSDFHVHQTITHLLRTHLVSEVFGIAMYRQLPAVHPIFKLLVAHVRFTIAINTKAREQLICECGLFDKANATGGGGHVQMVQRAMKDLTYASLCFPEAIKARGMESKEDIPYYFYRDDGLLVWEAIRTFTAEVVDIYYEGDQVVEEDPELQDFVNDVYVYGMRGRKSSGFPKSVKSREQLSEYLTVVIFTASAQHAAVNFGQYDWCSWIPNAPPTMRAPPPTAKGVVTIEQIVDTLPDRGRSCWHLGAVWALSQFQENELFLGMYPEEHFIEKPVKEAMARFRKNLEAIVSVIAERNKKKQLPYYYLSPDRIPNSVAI
# Procedure: Human polymorphonuclear leukocytes (neutrophils) were obtained from normal healthy volunteers by venipuncture and collected with heparin anticoagulant. Neutrophils were isolated by Dextran/Ficol sedimentation as described (Billah et al., J. Biol. Chem. 260, 6899-6906 (1985)). In brief, 30 ml of blood was mixed with 5 ml of dextran (Sigma) solution and kept at 37° C. for 30 min. The upper white cell-rich layer was removed and 10 ml was layered on 9 ml of Ficol-Paque solution (Pharmacia) and centrifuged at 280 xg for 10 min. at 5° C. The supernatant was removed and the neutrophil pellet was resuspended in HEPES buffer containing 25 mM N-2-hydroxyethylpiperazine-N^1 -2-ethanesulfonic acid HEPES, 125 mM NaCl, 2.5 mM KCl, 0.7 mM MgCl2, […] 10 mM glucose at pH 7.4. The red cells in the suspension were lysed by hypotonic shock. The neutrophils were washed by centrifugation in HEPES buffer two times and finally resuspended at a concentration of 20×10^6 cells/ml in the presence of 1 mM CaCl2.
# Neutrophils (0.2 ml of suspension) were preincubated with dimethylsulfoxide (DMSO) vehicle with or without test compound (1 ul) for 4 minutes then incubated for 5 minutes with [^14 C] arachidonic acid (Amersham, 59 Ci/mole) at a 9 uM final concentration, and the calcium ionophore A23187 (Calbiochem) at a 1 uM final concentration. These stimulants were added in 10 ul of water:ethanol (9:1). The reaction was stopped by addition of methanol (0.4 ml), and cellular debris was removed by centrifugation. Aliquots (100 ul) of the incubations were run on a Waters two pump HPLC system fitted with a DuPont Zorbax ODS, 5u, […] Reliance Cartridge column and C18 "Guard Pak". The column was initially eluted at 2 ml/min with 80% of the mixture water:methanol:acetic acid (46:54:0.08) containing 1 mM EDTA adjusted to pH 6.0 with ammonium hydroxide (Pump A) and 20% methanol (Pump B). At 10 minutes, a linear gradient to reach 100% methanol (Pump B) at 27 minutes was established. Between 27 and 28 minutes, methanol was exchanged for the initial eluting solvent and by 35 minutes the column had been reequilibrated for the next sample. The effluent was analyzed by a continuous flow radioactivity monitor (model ROMONA-D) interfaced with a Hewlett Packard Lab Automation System for quantitation of radioactive products. These were predominantly leukotriene B4 (LTB4) which eluted at 7 minutes, and 5-hydroxyeicosatetraenoic acid (5-HETE) which eluted at 20 minutes.
Structure (SMILES),inhibition at 15 µM (5-lipoxygenase; read-out: % Inhibition 5-HETE) [%],inhibition at 15 µM (5-lipoxygenase; read-out: % Inhibition LTB) [%],further results
COc1cc(O)c2c(c1)C(C)(C)C(c1ccc(OC)c(OC)c1)=CC2=O,–,–,inhibition at 50 µM [1]: 10%
CC(=O)Oc1cc(OC(C)=O)c2c(c1)C(C)(C)C(c1ccc(OC(C)=O)c(OC(C)=O)c1)CC2=O (stereo not drawn),–,–,inhibition at 50 µM [1]: 48%
COc1cc(OC)c2c(c1)C(C)(C)C(c1ccc(OC)c(OC)c1)=C(O)C2=O,–,–,inhibition at 50 µM [1]: 24%
COc1cc(OC)c2c(c1)C(C)(C)C(c1ccc(OC)c(OC)c1)CC2Sc1ccc(Cl)cc1 (stereo not drawn) [listing 1 of 2 here],–,–,inhibition [1]: 14%
COc1cc(OC)c2c(c1)C(C)(C)C(c1ccc(OC)c(OC)c1)CC21OCCO1 (stereo not drawn),–,–,inhibition [1]: 23%
COc1cc(OC)c2c(c1)C(C)(C)C(c1ccc(OC)c(OC)c1)CC2=NNC(=O)c1ccccc1 (stereo not drawn),22,38,–
COc1cc(OC)c2c(c1)C(C)(C)C(c1ccc(OC)c(OC)c1)CC2=NNC(=O)c1ccccc1O (stereo not drawn),41,50,–
COc1cc(OC)c2c(c1)C(C)(C)C(c1ccc(OC)c(OC)c1)CC2=NNC(C)=O (stereo not drawn),0,0,–
CON=C1CC(c2ccc(OC)c(OC)c2)C(C)(C)c2cc(OC)cc(OC)c21 (stereo not drawn),55,47,–
COc1cc(OC)c2c(c1)C(C)(C)C(c1ccc(OC)c(OC)c1)CC2=NOC(C)=O (stereo not drawn),13,18,–
CC1=C(c2ccc(O)c(O)c2)C(C)(C)c2cc(O)cc(O)c2C1=O,90,96,inhibition at 5 µM (5-lipoxygenase; read-out: % Inhibition 5-HETE): 13%; inhibition at 5 µM (5-lipoxygenase; read-out: % Inhibition LTB): 46%
COc1cc(OC)c2c(c1)C(C)(C)C(c1ccc(OC)c(OC)c1)CC2=NOC(=O)C(C)(C)C (stereo not drawn),0,–,–
COc1cc(OC)c2c(c1)C(C)(C)C(c1ccc(OC)c(OC)c1)CC2Sc1ccc(Cl)cc1 (stereo not drawn) [listing 2 of 2 here],36,–,–
COc1cc(OC)c2c(c1)C(C)(C)C(c1ccc(OC)c(OC)c1)CC2=NN (stereo not drawn),35,–,–
C=CCC1C(=O)c2c(OC)cc(OC)cc2C(C)(C)C1c1ccc(OC)c(OC)c1 (stereo not drawn),–,0,–
CCOC(=O)C1C(=O)c2c(OC)cc(OC)cc2C(C)(C)C1c1ccc(OC)c(OC)c1 (stereo not drawn),69,89,–
COc1ccc2c(c1)C(C)(C)C(c1ccc(OC)c(OC)c1)=CC2=O,79,–,–
COc1ccc(C2CC(=O)c3c(OC)cccc3C2(C)C)cc1OC (stereo not drawn),23,–,–
COc1ccc(C2=CC(=O)c3c(OC)cccc3C2(C)C)cc1OC,28,–,–
COc1cc(O)c2c(c1)C(C)(C)C(c1ccc(OC)c(OC)c1)CC2=O (stereo not drawn),0,–,–
CC1(C)c2cc(O)cc(O)c2C(=NO)CC1c1cc(O)cc(O)c1 (stereo not drawn),57,–,–

Structure (SMILES),inhibition at 15 µM (5-lipoxygenase; read-out: % Inhibition 5-HETE) [%],inhibition at 15 µM (5-lipoxygenase; read-out: % Inhibition LTB) [%],further results
COc1cc(OC)cc(C2=CC(=O)c3c(OC)cc(OC)cc3C2(C)C)c1,0,0,–
CC1(C)C(c2cc(O)cc(O)c2)=CC(=O)c2c(O)cc(O)cc21,11,–,–
COc1cc(O)c2c(c1)C(C)(C)C(c1cc(O)cc(O)c1)CC2=O (stereo not drawn),75,–,–
CC1(C)c2cc(O)cc(O)c2C(=O)CC1c1cccc(O)c1 (stereo not drawn),23,–,–
COc1cc(OC)c2c(c1)C(C)(C)C(c1ccc(OC)c(OC)c1)CC(Sc1ccccc1)C2=O (stereo not drawn),61,–,–
COc1cc(OC)c2c(c1)C(C)(C)C(c1ccc(OC)c(OC)c1)C=CC2=O (stereo not drawn),48,–,–
CC(=O)Oc1cc(OC(C)=O)c2c(c1)C(C)(C)[C@H](c1ccc(OC(C)=O)c(OC(C)=O)c1)[C@H](OC(C)=O)C2=O (relative stereo),–,–,inhibition at 50 µM [1]: 26%
CC(=O)Oc1cc(OC(C)=O)c2c(c1)C(C)(C)[C@H](c1ccc(OC(C)=O)c(OC(C)=O)c1)[C@@H](OC(C)=O)C2=O (relative stereo),–,–,inhibition at 50 µM [1]: 41%
COc1cc(OC)c2c(c1)C(C)(C)[C@H](c1ccc(OC)c(OC)c1)[C@@H](OC(C)=O)C2=O (relative stereo),–,–,inhibition at 50 µM [1]: 12%
"COc1ccc(C2CC(=O)Cc3c(OC)cccc3C2(C)C)cc1OC (stereo not drawn) [8-(3,4-dimethoxyphenyl)-9,9-dimethyl-4-methoxy-5,7,8,9-tetrahydro-6H-benzocyclohepten-6-one]",61,22,–
"COc1cc(OC)cc(C2CCC(=O)c3c(OC)cc(OC)cc3C2(C)C)c1 (stereo not drawn) [8-(3,5-dimethoxyphenyl)-6,7,8,9-tetradydro-2,4-dimethoxy-9,9-dimethyl-5H-benzocyclohepten-5-one]",46,46,–
COc1cc(OC)cc(C2=CC(=O)c3c(OC)cc(OC)cc3C2(C)C)c1 [drawing 84 [K=H]],–,–,inhibition [1]: 33%
COc1cc(OC)cc(C2=CC(=O)c3c(cc(OC)c(OC)c3OC)C2(C)C)c1 [drawing 84 [K=OCH3]],–,–,inhibition [1]: 21%
COc1ccc(CC2CC(C)(C)c3cc(OC)cc(OC)c3C2=O)cc1 (stereo not drawn) [drawing 85 [A=drawing 86; B=H]],–,–,inhibition [1]: 0%
"COc1cc(OC)cc(C2=CC(=O)c3c(cc(OC)c(OC)c3OC)C2(C)C)c1 [drawing 101 [R3/R4=O; E,G,P,L,K=OCH3; db yes]]",7,1,–
COc1cc(OC)c2c(c1)C(C)(C)CC(c1ccccc1)C2=O (stereo not drawn) [drawing 102 [A=C6H5; B=H]],64,–,–
COc1ccc(CC2CC(C)(C)c3cc(OC)cc(OC)c3C2=O)cc1 (stereo not drawn) [drawing 102 [A=drawing 103; B=H]],86,–,–
COc1ccc(CC2(Cc3ccc(OC)cc3)CC(C)(C)c3cc(OC)cc(OC)c3C2=O)cc1 [drawing 102 [A=drawing 104; B=drawing 105]],88,–,–
"COc1cc(OC)c2c(c1)C(C)(C)C(c1ccc(OC)c(OC)c1)CCO2 (stereo not drawn) [drawing 106 [X=O; R3/R4=H,H; J=H; L,P=OCH3]]",39,28,–
"COc1cc(OC)c2c(c1)C(C)(C)C(c1ccc(OC)c(OC)c1)C(C)C(=O)O2 (stereo not drawn) [drawing 106 [X=O; R3/R4=O; J=CH3; L,P=OCH3], 4-(3,4-dimethoxyphenyl)-4,5-dihydro-7,9-dimethoxy-3,5,5-trimethyl-1-benzoxepin-2(3H)-one]",20,2,–
"CC1(C)c2cc(O)cc(O)c2C(=O)CCC1c1ccc(O)c(O)c1 (stereo not drawn) [drawing 107 [X=O; db no; W,J,F=H; E,G,L,P=OH]]",88,–,–
